Reference: US11780843B2, “Compounds active towards nuclear receptors” (NUEVOLUTION A/S, priority 2020, dated 2023)
Like-named read-outs stand apart in the source and are kept apart here.

Key:
[1] = molecular target: T1, RORγ ligand-binding domain (Homo sapiens, UniProt P51449); experiment: RORγ Reporter Assay (Gal4); assay type: cell-based
T1 construct: Gal4 (galactose-responsive transcription factor); expressed in transfected cells; host or cells: HEK293, transient co-transfection
T1 sequence (P51449 269-508 limits assumed): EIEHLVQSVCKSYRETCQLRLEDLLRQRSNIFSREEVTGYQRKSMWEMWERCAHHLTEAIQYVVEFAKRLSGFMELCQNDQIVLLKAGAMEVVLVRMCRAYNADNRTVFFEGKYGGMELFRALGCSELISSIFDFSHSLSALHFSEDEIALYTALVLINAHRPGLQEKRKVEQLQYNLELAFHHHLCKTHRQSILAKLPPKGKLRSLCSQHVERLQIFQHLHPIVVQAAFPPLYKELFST
Outline: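 HEK293 cells transiently co-transfected with Gal4–RORγ LBD fusion and UAS-luciferase reporter, plated 2 h, then exposed to compound (0.1% DMSO final) for 24 h at 37 °C. Luminescence read; percent reduction vs vehicle fitted to dose-response curves.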

[2] = tested on: IL-17A secretion in activated PBMCs; experiment: IL-17A secretion in activated PBMCs; assay type: cell-based; conditions: human PBMCs stimulated with CD3/CD28 Dynabeads for 48 h, absolute IC50
Source text: Heparin-treated whole blood from healthy human volunteers was supplied from Hospital de Sant Pau (Barcelona) under the approval of the local ethical review board for human studies (Hospital de Sant Pau, Barcelona, Spain). Human peripheral blood mononuclear cells (PBMCs) were isolated from healthy human volunteers by density gradient centrifugation using the Ficoll-Paque (GE Healthcare). PBMCs were suspended in cell culture medium which consisted on RPMI 1640 medium (Sigma-Aldrich) containing 10% heat inactivated fetal bovine serum (Sigma-Aldrich), 2 mM L-Glutamine (Gibco), 20 mM Hepes (Gibco) and 100 U/mL penicillin (Sigma-Aldrich). Cells were seeded in 384-well plate (DiscoverX), at 40,000 cells per well and cultured 2 h at 37° C. and 5% CO2.
Dose-response curves with compounds were prepared using a 5-fold serial dilution (10 concentrations) in 100% DMSO and further diluted 100-fold in culture medium. Compound solutions (5 μL) were added to the plate containing cells (final DMSO concentration of 0.1%) and incubated for 30 min. Then, cells were stimulated with CD3/CD28 Dynabeads (ThermoFisher, at a bead-to-cell ratio of 1:1) for 48 h at 37° C. and 5% CO2.
IL-17A levels in supernatant were determined by immunoassay using hIL17A QBeads (Intellicyt) and by fluorescence analysis in iQue flow cytometer following the manufacturer's instructions. Inhibition of IL-17A secretion was calculated using the following formula: inhibition=100*[1−[(x−mean basal condition)/(mean top condition—mean basal condition)]]. Activated DMSO-treated cells were used as top condition and activated GNE09461 (10 μM)-treated cells as basal condition.

[3] = tested on: plasma IL-17A; experiment: In vivo IL-17A induction in anti-CD3 model in mice; conditions: oral gavage twice daily day 0 to day 3, anti-CD3e induced C57BL/6JRj mice
Procedure: Male C57BL/6JRj mice (7 week old) were purchased from Janvier Labs and housed at the animal facilities of Almirall throughout the study. Animals were allowed to condition for 5 days in their new environment at 22° C.±2° C., 55%±10% relative humidity and 12 h:12 h light:dark cycles. Animals were housed in polycarbonate cages, with free access to water and non-purified stock diet (2014 Teklad Global 14% Protein Rodent Maintenance Diet, Envigo) during the full course of the studies. Care of animals was undertaken in compliance with the European Committee Directive 2010/63/EU, and the Catalan and Spanish law. […]
Plasma levels of IL-17A were measured by ELISA (R&D Systems) according to the manufacturer's instruction. Results were calculated as the percentage of reduction of plasma IL-17A versus the difference between non-induced and anti-CD3e induced groups through the formula: inhibition=100*[1−[(x−mean non-induced)/(mean control vehicle−mean non-induced)]]. The IL-17A inhibition for each treatment can be expressed as the mean for each treatment group±S.E.M. Statistical analysis of data were conducted with one-way ANOVA followed by Dunnett's multiple comparisons test when appropriate. […]

[4] = tested on: Th17 cells; experiment: Th17 Assay (IL-17 levels in supernatants of differentiated Th17 cells); assay type: cell-based; conditions: Homo sapiens, 168 h; naive CD4+ T cells differentiated to Th17 for seven days, IL-17 by ELISA
Procedure: Human peripheral blood mononuclear cells (PBMCs) were isolated from buffy coats of healthy human volunteers using the Ficoll paque PLUS kit (GE Healthcare, cat no 17-1440-02), as instructed by the manufacturer. Naive CD4+ T cells were isolated with Naive CD4+ T cell kit, human (Milteny Biotec, cat no 130-094-131). The following modifications were made to the manufacturer's protocol: 1) Incubation with Biotin-Antibody Cocktail and Anti-Biotin MicroBeads was prolonged to 30 minutes, and 2) Cells were washed with 40 mL of Miltenyi buffer. Differentiation of Th17 cells in anti-CD3 (BD Pharmingen, 5 μg/ml) coated 96-well plates (400,000 cells/well, 160 μl RPMI 1640+10% Fetal Bovine Serum) containing 5 μg/ml anti-CD28 (BD Pharmingen), 10 ng/ml IL-2 (R&D Systems), 2.5 ng/ml TGFβ-1 (R&D Systems), 20 ng/ml IL-10 (R&D Systems), 20 ng/ml IL-6 (R&D Systems), 30 ng/ml IL-23 (R&D Systems), 2.5 μg/ml anti-IL-4 (R&D Systems) and 1 μg/ml anti-IFNγ (R&D Systems) and with test compound during the entire differentiation (or vehicle, 0.1% DMSO for control). Test compounds were tested in triplicates, diluted 1000-fold in medium (final DMSO concentration is 0.1%). […] IL-17 levels in supernatants were measured with ELISA (R&D Systems).

[5] = HEK293 cells, luciferase reporter, 24 h incubation, absolute IC50, read-out: IC50

SMILES | IC50 [1, 5] [nM] | IC50 ([1]; stated as a bound only (Tables 5 a, 6, 7), read-out: Gal4 assay IC50) [nM] | IC50 [4] [nM] | IC50 ([2]; Homo sapiens, PBMC, 48 h) [nM] | Inhibition of IL-17A (%) at 3 mg/kg [3] [%] | IC50 [2] [nM]
NC(=O)CN1CC[C@](O)(Cn2ccc3c(N(Cc4ccc(C(F)(F)F)cc4)C4CC4)ncnc32)[C@@H](O)C1 (single isomer, unassigned) [Example L5-1-1-1] | 2.2 | < 100 |  | 3.6 | 94 | 
NC(=O)CN1CCC(Cn2ccc3c(N4CCOCC4c4ccc(C(F)(F)F)cc4)ncnc32)CC1 (single isomer, unassigned) [Example P6-02-2] | 30 |  | 124 |  |  | 
NC(=O)CN1CC[C@](O)(Cn2ccc3c(N(Cc4ccc(-n5cccn5)cc4)C4CC4)ncnc32)[C@@H](O)C1 (single isomer, unassigned) [Example R5-2-1] | 4.9 |  |  |  |  | 29
NC(=O)CN1CC[C@](O)(Cn2ccc3c(N(Cc4ccc(-n5cccn5)cc4)C4CC4)ncnc32)[C@@H](O)C1 (single isomer, unassigned) [Example R5-2-2] | 6.5 |  |  |  |  | 7.4
N#CC1(Cn2cc(F)c3c(N(Cc4ccc(C(F)(F)F)cc4)C4CC4)ncnc32)CCN(CC(N)=O)CC1 [Example P6-11, 2-(4-cyano-4-((4-(cyclopropyl(4-(trifluoromethyl)benzyl)amino)-5-fluoro-7H-pyrrolo[2,3-d]pyrimidin-7-yl)methyl)piperidin-1-yl)acetamide] | 16 |  |  | 23 |  | 

Second part, led by results:

IC50 [1, 5] [nM] | IC50 ([1]; stated as a bound only (Tables 5 a, 6, 7), read-out: Gal4 assay IC50) [nM] | IC50 [4] [nM] | SMILES | IC50 ([2]; Homo sapiens, PBMC, 48 h) [nM] | Inhibition of IL-17A (%) at 3 mg/kg [3] [%] | IC50 [2] [nM]
6.9 |  |  | NC(=O)CN1CCC(O)(Cn2cc(F)c3c(N(Cc4ccc(C(F)(F)F)cc4)C4CC4)ncnc32)CC1 [Example 3P6-1, 2-(4-((4-(Cyclopropyl(4-(trifluoromethyl)benzyl)amino)-5-fluoro-7H-pyrrolo[2,3-d]pyrimidin-7-yl)methyl)-4-hydroxypiperidin-1-yl)acetamide] | 21 |  | 
4.2 |  |  | NC(=O)CN1CCC(O)(Cn2ccc3c(N(Cc4ccc(C(F)(F)F)cc4)C4CC4)ncnc32)CC1 [Example 3P6-2, 2-(4-((4-(cyclopropyl(4-(trifluoromethyl)benzyl)amino)-7H-pyrrolo-[2,3-d]pyrimidin-7-yl)methyl)-4-hydroxypiperidin-1-yl)acetamide] | 2.2 |  | 
62 |  |  | NC(=O)CN1CCC(Cn2cc(F)c3c(N(Cc4ccc(C(F)(F)F)cc4)C4CC4)ncnc32)CC1 [Example P6-05, 2-(4-((4-(cyclopropyl(4-(trifluoromethyl)benzyl)amino)-5-fluoro-7H-pyrrolo[2,3-d]pyrimidin-7-yl)methyl)piperidin-1-yl)acetamide] | 20 |  | 
85 |  |  | NC(=O)CN1CCC(Cn2cnc3c(N(Cc4ccc(C(F)(F)F)cc4)C4CC4)ncnc32)CC1 [Example P6-06, 2-(4-((6-(cyclopropyl(4-(trifluoromethyl)benzyl)amino)-9H-purin-9-yl)methyl)piperidin-1-yl)acetamide] | 48 |  | 
